What was measured:
[1] = Hematology in monkeys, 2 mg/kg 30-min IV infusion; type: in vivo, Cynomolgus monkeys
Experimental: (§1) TH 3423 and TH 3424 were tested in […] naïve monkeys (1 male and one female for each compound at 2 mg/kg) with 30-min intravenous infusion, TK sampling: on Day 1 and Day 15: 0.25, 0.5, 0.75, 1 and 2 hr post infusion initiation. Serum chemistry and hematology: pre-dose (Day 1), day 5, day 8 (pre-dose), day 15 (pre-dose), day 22 and day 28. Clinical observation: Daily during the study, total 35 days. Food consumption: Daily during the study, total 35 days. Bodyweight measurement: Twice weekly for five weeks.

[2] = Body weight in monkeys, 2 mg/kg 30-min IV infusion; type: in vivo, Cynomolgus monkeys
Experimental: as §1

SMILES: C[C@H](OP(=O)(N1CC1)N1CC1)c1ccc([N+](=O)[O-])c(Oc2cccc(C(=O)N(C)C)c2)c1 (single isomer, unassigned) [TH3424]
- abs_neuts ([1]; female, Day 15 (pre-dose)): 1.67e+10 L⁻¹
- % BASO ([1]; male, Day 1 (pre-dose)): 0.0%
- % EOS ([1]; male, Day 1 (pre-dose)): 2.6%
- % MONO ([1]; male, Day 1 (pre-dose)): 0.1%
- % NEUT ([1]; male, Day 1 (pre-dose)): 58.4%
- HCT ([1]; male, Day 1 (pre-dose)): 34.9%
- HGB ([1]; male, Day 1 (pre-dose)): 117 g/L
- LYM ([1]; male, Day 1 (pre-dose)): 38.9%
- MCH ([1]; male, Day 1 (pre-dose)): 25.7 pg
- MCHC ([1]; male, Day 1 (pre-dose)): 335 g/L
- MCV ([1]; male, Day 1 (pre-dose)): 76.7 fL
- MPV ([1]; male, Day 1 (pre-dose)): 11.1 fL
- PCT ([1]; male, Day 1 (pre-dose)): 0.267%
- PDW ([1]; male, Day 1 (pre-dose)): 15.5
- PLT ([1]; male, Day 1 (pre-dose)): 2.4e+11 L⁻¹
- RBC ([1]; male, Day 1 (pre-dose)): 4.55e+12 L⁻¹
- RDW-CV ([1]; male, Day 1 (pre-dose)): 11.8%
- RDW-SD ([1]; male, Day 1 (pre-dose)): 38.1 fL
- WBC ([1]; male, Day 1 (pre-dose)): 4.71e+09 L⁻¹
- abs_basos ([1]; male, Day 1 (pre-dose)): 0 L⁻¹
- abs_eos ([1]; male, Day 1 (pre-dose)): 1.2e+08 L⁻¹
- abs_lymphs ([1]; male, Day 1 (pre-dose)): 1.84e+09 L⁻¹
- abs_monos ([1]; male, Day 1 (pre-dose)): 0 L⁻¹
- abs_neuts ([1]; male, Day 1 (pre-dose)): 2.75e+09 L⁻¹
- % BASO ([1]; male, Day 8 (pre-dose)): 5.30%
- % EOS ([1]; male, Day 8 (pre-dose)): 1.10%
- % MONO ([1]; male, Day 8 (pre-dose)): 13.10%
- % NEUT ([1]; male, Day 8 (pre-dose)): 34.60%
- HCT ([1]; male, Day 8 (pre-dose)): 35.20%
- HGB ([1]; male, Day 8 (pre-dose)): 117.00 g/L
- LYM ([1]; male, Day 8 (pre-dose)): 45.90%
- MCH ([1]; male, Day 8 (pre-dose)): 25.50 pg
- MCHC ([1]; male, Day 8 (pre-dose)): 332.00 g/L
- MCV ([1]; male, Day 8 (pre-dose)): 76.70 fL
- MPV ([1]; male, Day 8 (pre-dose)): 10.30 fL
- PCT ([1]; male, Day 8 (pre-dose)): 0.51%
- PDW ([1]; male, Day 8 (pre-dose)): 15.30
- PLT ([1]; male, Day 8 (pre-dose)): 4.96e+11 L⁻¹
- RBC ([1]; male, Day 8 (pre-dose)): 4.59e+12 L⁻¹
- RDW-CV ([1]; male, Day 8 (pre-dose)): 11.50%
- RDW-SD ([1]; male, Day 8 (pre-dose)): 37.20 fL
- WBC ([1]; male, Day 8 (pre-dose)): 9.15e+09 L⁻¹
- abs_basos ([1]; male, Day 8 (pre-dose)): 4.9e+08 L⁻¹
- abs_eos ([1]; male, Day 8 (pre-dose)): 1e+08 L⁻¹
- abs_lymphs ([1]; male, Day 8 (pre-dose)): 4.19e+09 L⁻¹
- abs_monos ([1]; male, Day 8 (pre-dose)): 1.21e+09 L⁻¹
- abs_neuts ([1]; male, Day 8 (pre-dose)): 3.16e+09 L⁻¹
- % BASO ([1]; male, Day 15 (pre-dose)): 0.10%
- % EOS ([1]; male, Day 15 (pre-dose)): 3.10%
- % MONO ([1]; male, Day 15 (pre-dose)): 4.40%
- % NEUT ([1]; male, Day 15 (pre-dose)): 65.7%
- HCT ([1]; male, Day 15 (pre-dose)): 37.4%
- HGB ([1]; male, Day 15 (pre-dose)): 127 g/L
- LYM ([1]; male, Day 15 (pre-dose)): 26.70%
- MCH ([1]; male, Day 15 (pre-dose)): 25.3 pg
- MCHC ([1]; male, Day 15 (pre-dose)): 340 g/L
- MCV ([1]; male, Day 15 (pre-dose)): 74.5 fL
- MPV ([1]; male, Day 15 (pre-dose)): 9.5 fL
- PCT ([1]; male, Day 15 (pre-dose)): 0.593%
- PDW ([1]; male, Day 15 (pre-dose)): 15.4
- PLT ([1]; male, Day 15 (pre-dose)): 6.23e+11 L⁻¹
- RBC ([1]; male, Day 15 (pre-dose)): 5.02e+12 L⁻¹
- RDW-CV ([1]; male, Day 15 (pre-dose)): 11.5%
- RDW-SD ([1]; male, Day 15 (pre-dose)): 36.3 fL
- WBC ([1]; male, Day 15 (pre-dose)): 1.326e+10 L⁻¹
- abs_basos ([1]; male, Day 15 (pre-dose)): 2e+07 L⁻¹
- abs_eos ([1]; male, Day 15 (pre-dose)): 4.1e+08 L⁻¹
- abs_lymphs ([1]; male, Day 15 (pre-dose)): 3.54e+09 L⁻¹
- abs_monos ([1]; male, Day 15 (pre-dose)): 5.9e+08 L⁻¹
- abs_neuts ([1]; male, Day 15 (pre-dose)): 8.7e+09 L⁻¹
- body weight ([2]; Day 1, male): 3.40
- body weight ([2]; Day 4, male): 3.30
- body weight ([2]; Day 8, Mean): 3.20
